{
  "source": "patent US20250375401A1",
  "about": "“PHARMACEUTICAL COMPOSITION CONTAINING DEMETHYLZEYLASTERAL FOR PREVENTION OR TREATMENT OF DISEASES CAUSED BY MUSCLE LOSS” (SEOUL NATIONAL UNIVERSITY R&DB FOUNDATION, priority 2022, published 2025)",
  "key": {"[1]": {"system": "myoblast cell line C2C12", "assay": "Myocyte differentiation in dexamethasone-induced cell model (total MHC immunofluorescence and DAPI staining)", "format": "cell-based, mouse", "settings": "C2C12 myotubes, 0.5 or 1 μM demethylzeylasteral with 100 μM dexamethasone", "procedure": "dexamethasone-induced cell model, the following experiments were performed. Specifically, myoblast cell line C2C12 from mouse were seeded in 6 cm dishes and incubated for 72 hours. Then, the media were replaced to differentiation media to differentiate myoblasts into myotubes for 48 hours. After myotubes were formed, they were teated with 100 μM dexamethasone and 0.5, or 1 μM demethylzeylasteral for 72 hours while replacing the differentiation media every 24 hours. The differentiation media were suctioned off, and the dishes in which the cells were incubated were washed three times with PBS. Then, the cells were fixed with 4% formaldehyde, permeabilized with PBS containing 0.1% Triton-X 100 for 10 minutes, and blocked with PBS containing 3% bovine serum albumin for 1 hour. The cells were treated with total MHC antibodies, a biomarker for myocyte differentiation, followed by Alexa 488-conjugated secondary antibodies, and teated with DAPI for staining nuclei. The ratio of MHC+ nuclei to the total number of nuclei was calculated and plotted as a differentiation index, and the total number of nuclei stained with DAPI was also counted and plotted."}, "[2]": {"system": "myoblast cell line C2C12", "assay": "Western blot of total MHC and MuRF-1 in dexamethasone-induced cell model", "format": "cell-based, mouse", "settings": "C2C12 myotubes, 0.5 or 1 μM demethylzeylasteral with 100 μM dexamethasone, 48 hours, western blot (FIG. 5)", "procedure": "Specifically, myoblast cell line C2C12 from mouse were seeded in 6 cm dishes and incubated for 72 hours."}},
  "data": [
    {"smiles": "C[C@@]1(C(=O)O)CC[C@]2(C)CC[C@]3(C)C4=CC(=O)c5c(cc(O)c(O)c5C=O)[C@]4(C)CC[C@@]3(C)[C@@H]2C1", "note": "[demethylzeylasteral, (2R,4aS,6aR,6aS,14aS,14bR)-9-formyl-10,11-dihydroxy-2,4a,6a,6a,14a-pentamethyl-8-oxo-1,3,4,5,6,13,14,14b-octahydropicene-2-carboxylic acid]", "values": [
      {"measurement": "myocyte differentiation index (total number of MHC+ nuclei divided by total number of nuclei)", "setting": "[1]; 72 hours (FIG. 3)", "value": "significantly increased and restored"},
      {"measurement": "number of nuclei (DAPI staining)", "setting": "[1]; 72 hours (FIG. 4)", "value": "significantly increased"},
      {"measurement": "expression of MuRF-1 (biomarker for muscle degradation)", "setting": "[2]", "value": "significantly reduced expression"},
      {"measurement": "expression of total MHC (biomarker for myocyte differentiation in late stage)", "setting": "[2]", "value": "significantly increased expression"}
    ]}
  ]
}
